Experimental data published in US9597407B2, “Targeted antimicrobial moieties” (C3 Jian, Inc., priority 2009, dated 2017).
“Also recorded” adds a separate entry of the source. Square brackets hold non-standard residues; d marks the D form. Ends that are not written are not given here. dOrn = NCCC[C@@H](N)C(=O)O; Orn = NCCC[C@H](N)C(=O)O

Tests used:
microorganisms = experiment: Morphology, biofilm and growth disruption by peptides (Table 5); assay type: cell-based; set-up: key: A: Peptide aggregates; B: Less hyphal formation; Clumps; Diffuse clumps and small polyps; F: Diffuse growth; H: Thin; I: Growth inhibition; Microcolony formation; Rippled; Small polyps; Thick; W: Halo formation on top, microlonies on bottom
Excerpt: In certain embodiments peptides that induce alterations in phenotype or other biological activities can also be used as antimicrobial effector moieties.

bacteria = experiment: Binding of targeting peptides to microorganisms (Table 3); details: preferably 1x PBS; for Target(s): microorganism the targeting peptide binds, binding in aqueous buffers that varied with peptide solubility; for Target(s) (microorganisms bound by the targeting peptide) / Target(s) (microorganism bound by the targeting peptide): peptide binding in aqueous buffers that varied depending on peptide solubility

| Substance | Target(s) (bacteria) | Target(s) (microorganism bound by the targeting peptide) (bacteria) | other results |
| --- | --- | --- | --- |
| ALDCSEQSVILWYETILDKIVGVIK [PF-028] | S. epidermidis and M. luteus and MRSA |  | Organism, effect (microorganisms; C. jeikeium): C. jeikeium (M); Organism, effect (microorganisms; MRSA): MRSA (R); Organism, effect (microorganisms; S. epidermidis): S. epidermidis (M) |
| CGKLLEQKNFFLKTR [PF-521] |  |  | Organism, effect (morphology, biofilm and growth disruption) (microorganisms; S. pneumoniae): S. pneumoniae (H); Target(s) (microorganisms bound by the targeting peptide) (bacteria): S. epidermidis; also recorded: E. coli; also recorded: P. aeruginosa; also recorded: S. pneumoniae; also recorded: E. faecalis |
| DEIKVSDEEIEKFIKENNL [PF-597] |  | P. mirabilis | Organism, effect (morphology, biofilm and growth disruption) (microorganisms; E. faecalis): E. faecalis (A) |
| FELVDWLETNLGKILKSKSA-NH2 [PF-522] |  |  | Organism, effect (morphology, biofilm and growth disruption) (microorganisms; S. pneumoniae): S. pneumoniae (H); Target(s) (microorganisms bound by the targeting peptide) (bacteria): S. epidermidis; also recorded: E. coli; also recorded: P. aeruginosa; also recorded: S. pneumoniae; also recorded: E. faecalis |
| GNVHPESDFHNLIQFIKTFLYFTIFFKYFL [PF-C290] |  | A. naeslundii; also recorded: F. nucleatum; also recorded: P. gingivalis; also recorded: S. mutans; also recorded: T. denticola | Organism, effect (morphology, biofilm and growth disruption) (microorganisms; S. mutans): S. mutans (F) |
| HCVIGNVVDIANLLKRRAVYRDIADVIKMR [PF-071] | S. epidermidis and E. coli and P. aeruginosa and C. albicans and MRSA |  | Organism, effect (microorganisms; B. subtilis): B. subtilis (D); Organism, effect (microorganisms; C. albicans): C. albicans (B); Organism, effect (microorganisms; C. jejuni): C. jejuni (A); Organism, effect (microorganisms; M. luteus): M. luteus (R); Organism, effect (microorganisms; MRSA): MRSA (C); Organism, effect (microorganisms; S. epidermidis): S. epidermidis (R); Organism, effect (microorganisms; S. pneumoniae): S. pneumoniae (A) |
| HKNKLNIPHIKS [PF-477] |  |  | Organism, effect (morphology, biofilm and growth disruption) (microorganisms; S. pneumoniae): S. pneumoniae (H); Target(s) (microorganisms bound by the targeting peptide) (bacteria): S. epidermidis; also recorded: M. luteus; also recorded: C. albicans; also recorded: S. pneumoniae; also recorded: C. jeikeium; also recorded: C. jejuni |
| KKFKIFVIINWFYHKYIILNFEENF [PF-C085] |  | A. naeslundii; also recorded: F. nucleatum; also recorded: P. gingivalis; also recorded: S. mutans; also recorded: T. denticola | Organism, effect (morphology, biofilm and growth disruption) (microorganisms; S. mutans): S. mutans (F) |
| LHVIRPRPELSELKFPITKILKVNKQGLKK [PF-752] |  | S. epidermidis and E. coli and MRSA and S. pneumoniae and E. faecalis | Organism, effect (morphology, biofilm and growth disruption) (microorganisms; S. pneumoniae): S. pneumoniae (C) |
| PF-C093 (EKLGTMV; Peptide with targeting and/or antimicrobial activity) |  | A. naeslundii; also recorded: F. nucleatum; also recorded: S. mutans |  |
| PF-C134 (NELMKYPATLTATATTPGIKYSHLCSVCL; Peptide with targeting and/or antimicrobial activity) |  | A. naeslundii; also recorded: F. nucleatum; also recorded: P. gingivalis; also recorded: S. mutans; also recorded: T. denticola |  |
| PF-C160 (AASGFTYCASNGVWHPY; Peptide with targeting and/or antimicrobial activity) |  | F. nucleatum |  |
| PF-C259 (AEIQPHCLSVL; Peptide with targeting and/or antimicrobial activity) |  | F. nucleatum; also recorded: S. mutans |  |
| PF-C271 (FFPSYYSIIITYF; Peptide with targeting and/or antimicrobial activity) |  | A. naeslundii; also recorded: F. nucleatum; also recorded: P. gingivalis; also recorded: S. mutans; also recorded: T. denticola |  |
| PF-C273 (KNMLKRRMKQKRLFDEEDRLRVLSKYTKSYY; Peptide with targeting and/or antimicrobial activity) |  | A. naeslundii; also recorded: P. gingivalis; also recorded: S. mutans; also recorded: T. denticola |  |
| PF-C285 (FTIIELKKQKIKHGENNKKTAHPLNEPFCARA; Peptide with targeting and/or antimicrobial activity) |  | A. naeslundii; also recorded: F. nucleatum; also recorded: P. gingivalis; also recorded: S. mutans; also recorded: T. denticola |  |
| PF-S004 (VLLNIFRTLLEFFSPSNAPGAEDVPLPDTQA; Peptide with targeting and/or antimicrobial activity) |  | S. epidermidis and MRSA and C. jeikeium |  |

| Substance | Target(s) (bacteria) | Target(s) (microorganism bound by the targeting peptide) (bacteria) | other results |
| --- | --- | --- | --- |
| PF-S007 (VVAGVVLLTALAVGSKRKEKKQIKEIQRLLAATR; Peptide with targeting and/or antimicrobial activity) |  | S. epidermidis and MRSA |  |
| PF-S015 (IENLERGARRPP; Peptide with targeting and/or antimicrobial activity) |  | S. epidermidis and MRSA and C. jeikeium |  |
| PF-S018 (GMPQIPRLRI; Peptide with targeting and/or antimicrobial activity) |  | S. epidermidis and M. luteus and C. albicans and MRSA and E. faecalis and C. jeikeium and C. jejuni |  |
| PF-S023 (MAEDERRALKRRTNRGRTRTRKRITV; Peptide with targeting and/or antimicrobial activity) |  | S. epidermidis and MRSA |  |
| PF-S024 (SKRGRKRKDRRKKKANHGKRPNS; Peptide with targeting and/or antimicrobial activity) | Corynebacteria |  |  |
| PF-S026 (TELKYNGEEYLLLTQRDILAVIEK; Peptide with targeting and/or antimicrobial activity) |  | S. epidermidis and MRSA and C. jeikeium |  |
| PF-S029 (TSDTQSQSPWLFDNADIVNIYPVQLMHSSDND; Peptide with targeting and/or antimicrobial activity) |  | M. luteus; also recorded: P. mirabilis; also recorded: E. coli; also recorded: C. albicans; also recorded: C. jeikeium; also recorded: C. jejuni |  |
| Py Pf 12 ([dS]KG[Orn][dS]SGK[dOrn]ES; bridge (positions not given here); not fully specified (bridges)) | P. fluorescens |  |  |
| TT-305 (ARNALNMRDVPVDAAIIGIIDGMDEE; Peptide with targeting and/or antimicrobial activity) | F. nucleatum |  |  |
| TT-306 (KILNEAEGKLLKVIEKNGEIDIEEI; Peptide with targeting and/or antimicrobial activity) | F. nucleatum |  |  |
| TT-307 (NGDKKAKEELDKWDEVIKELNIQF; Peptide with targeting and/or antimicrobial activity) | F. nucleatum |  |  |
| TT-308 (GLVIIPNLIALIILFSQVRQQTKDYFSNPKLSSR; Peptide with targeting and/or antimicrobial activity) | F. nucleatum |  |  |
| TT-309 (EPLPLTKYDKKDTEMKKVFKEILAGKVGYEKEEE; Peptide with targeting and/or antimicrobial activity) | F. nucleatum |  |  |
| TT-310 (TKLKKNNKLLSAKKENTLHTKDK; Peptide with targeting and/or antimicrobial activity) | F. nucleatum |  |  |
| TT-311 (AIFDAMHNL; Peptide with targeting and/or antimicrobial activity) | S. mutans; also recorded: S. sobrinus |  |  |
| VYSFLYVLVIVRKLLSMKKRIERL [PF-499] |  |  | Target(s) (microorganisms bound by the targeting peptide) (bacteria): S. mutans; also recorded: E. coli |
